“Also recorded” adds a separate entry of the source.
Legend:
[1] = tested on: p53-Mdm4 complexes in Saos-2 p53-Mdm4 ReBiL cells; experiment: Real-time BiLC; assay type: cell-based; details: 37 °C; for disruption of preformed p53-Mdm4 complexes in living cells: pre-induced cells, doxycycline withdrawal, 10% FBS media
[2] = tested on: p53-Mdm2 complexes in cell lysates; experiment: BiLC assay using cell lysates, p53-Mdm2; assay type: biochemical; details: absence of FBS, RT 10 minutes, luminescence at 26 °C
[3] = tested on: p53-Mdm4 complexes in cell lysates; experiment: BiLC assay using cell lysates, p53-Mdm4; assay type: biochemical; details: absence of FBS, RT 10 minutes, luminescence at 26 °C
[4] = target: p53-Mdm2 complexes in Saos-2 p53-Mdm2 ReBiL cells (Homo sapiens, UniProt Q00987); experiment: Real-time BiLC; assay type: cell-based; details: pre-induced cells, doxycycline withdrawal, 10% FBS media, 37 °C
[5] = tested on: Mdm2-Mdm4 N-terminal BiLC pair (U2OS Mdm4_111 - Mdm2_108 ReBiL cells); experiment: ReBiL assay of the Mdm2-Mdm4 N-terminal BiLC pair in living cells; assay type: cell-based; details: 500 ng/ml doxycycline, 24 hours, 37 °C
Saos-2 cells = experiment: Lactate dehydrogenase; assay type: cell-based; details: absence of serum, 25 μM and 10 μM, 6 hr
Saos-2 cells (p53-null) = experiment: CellTiter Glo cell viability assay, Saos-2; details: Saos-2 ReBiL cells, 6 hr, CellTiter Glo (Figure 5)

Sequence of p53-Mdm2 complexes in Saos-2 p53-Mdm2 ReBiL cells (Q00987 whole entry, one chain of several): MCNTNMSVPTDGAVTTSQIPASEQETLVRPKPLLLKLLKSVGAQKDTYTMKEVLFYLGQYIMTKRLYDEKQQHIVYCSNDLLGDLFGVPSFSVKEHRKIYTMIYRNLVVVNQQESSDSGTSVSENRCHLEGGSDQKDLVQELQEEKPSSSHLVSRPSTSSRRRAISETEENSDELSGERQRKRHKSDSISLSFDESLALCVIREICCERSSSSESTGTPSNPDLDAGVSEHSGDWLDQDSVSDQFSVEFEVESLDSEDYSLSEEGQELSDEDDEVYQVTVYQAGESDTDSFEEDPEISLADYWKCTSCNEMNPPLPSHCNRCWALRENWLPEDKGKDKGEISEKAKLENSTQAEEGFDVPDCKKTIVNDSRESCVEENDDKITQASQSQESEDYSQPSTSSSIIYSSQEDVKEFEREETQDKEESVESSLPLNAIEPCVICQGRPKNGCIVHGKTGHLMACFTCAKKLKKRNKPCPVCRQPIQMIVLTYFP

| Molecule | p53-Mdm4 BiLC signal (newly synthesized complexes) ([1]; doxycycline 500 ng/ml and compound added at Time = 0, 24-48 hr) | p53-Mdm2 disruption in lysate BiLC assay [2] | p53-Mdm4 disruption in lysate BiLC assay [3] | disruption of preformed p53-Mdm2 complexes in living cells [4] | disruption of preformed p53-Mdm4 complexes in living cells [1] | Mdm2-Mdm4 N-terminal domain BiLC signal (association) [5] | LDH leakage / cell membrane damage (Saos-2 cells) | p53-independent cytotoxicity at high concentrations (Saos-2 cells (p53-null)) |
| --- | --- | --- | --- | --- | --- | --- | --- | --- |
| CCOc1cc(/C=C2/C(=O)N(c3ccccc3)N=C2C)cc(Cl)c1OCC(=O)OC [SJ-172550] | No decrease; also recorded: lacks p53-Mdm4 disruption activity | no activity | no activity |  |  |  |  |  |
| RO-5963 |  | no activity | no activity | limited ability to disrupt; also recorded: moderately reduces | no effect | increased the BiLC signal; also recorded: enhances |  |  |
| COc1ccc(C2=N[C@@H](c3ccc(Cl)cc3)[C@@H](c3ccc(Cl)cc3)N2C(=O)N2CCNC(=O)C2)c(OC(C)C)c1 [Nutlin-3a] |  | efficiently disrupted |  |  | not affected; also recorded: has no effect | did not promote | did not induce membrane leakage | induce p53-independent cytotoxicity |
